pEC50, pIC50: −log10 of the molar value. Like-named read-outs stand apart in the source and are kept apart here.
Key:
[1] = target: T1, HCV NS3/4A protease complex, BMS strain (UniProt P27958, species not given/STRAIN_BMS); assay: FRET peptide assay to monitor HCV NS3/4A proteolytic activity (BMS strain); type: biochemical, Hepatitis C virus (genotype 1a); conditions: read-out: HCV Protease (IC50), NS3/4A BMS strain
T1 construct: other: NS3/4A BMS strain; activity range class; numeric values, unit not given; said of H77 and J4L6S; fused on or other part: A three-lysine solubilising tail at the C-terminus of NS4A; A His tag is implied by the pET21b vector and Ni-NTA purification; Both are printed for the H77 and J4L6S constructs and apply to BMS by inference
Method in brief: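 Inhibition measured by real-time fluorescence increase as the protease cleaves RET S1 FRET depsipeptide (2 μM final). Enzyme: >90% pure BMS-strain (1a) NS3/4A at 2-3 nM final, or 300 pM with 50 μg/ml BSA for potent compounds. Buffer: 50 mM HEPES pH 7.5, 0.15 M NaCl, 0.1% Triton, 15% glycerol, 10 mM βME.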

[2] = system: HCV replicon (strain 1b) in HUH-7 cells; assay: HCV replicon FRET assay; type: cell-based, Hepatitis C virus
[3] = Hepatitis C virus, Huh-7, read-out: HCV Pro Replicon (EC50), HCV replicon cell assay, activity range class
[4] = read-out: HCV Pro Replicon (EC50), HCV replicon cell assay, activity range class

T1 sequence (P27958 1027-1657, change not shown, one chain of several): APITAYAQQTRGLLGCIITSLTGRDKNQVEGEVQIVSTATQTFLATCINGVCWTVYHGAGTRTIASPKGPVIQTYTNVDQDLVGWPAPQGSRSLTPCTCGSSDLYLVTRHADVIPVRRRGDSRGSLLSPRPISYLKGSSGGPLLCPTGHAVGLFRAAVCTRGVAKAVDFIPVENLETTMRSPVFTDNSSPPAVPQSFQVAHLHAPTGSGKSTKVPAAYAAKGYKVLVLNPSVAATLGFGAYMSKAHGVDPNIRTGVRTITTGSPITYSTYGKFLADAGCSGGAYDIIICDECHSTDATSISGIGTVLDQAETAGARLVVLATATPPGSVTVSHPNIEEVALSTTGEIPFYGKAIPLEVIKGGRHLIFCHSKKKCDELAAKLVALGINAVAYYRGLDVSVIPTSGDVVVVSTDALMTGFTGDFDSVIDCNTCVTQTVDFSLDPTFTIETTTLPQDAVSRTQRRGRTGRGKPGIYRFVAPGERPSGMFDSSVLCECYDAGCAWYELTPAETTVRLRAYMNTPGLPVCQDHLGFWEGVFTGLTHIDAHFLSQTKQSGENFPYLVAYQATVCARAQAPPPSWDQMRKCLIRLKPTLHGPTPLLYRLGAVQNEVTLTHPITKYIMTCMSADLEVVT

| Molecule | pIC50 ([1]; activity range class) | pEC50 [2, 3] | pEC50 [2, 4] | pIC50 ([1]; numeric values, unit inferred) | pEC50 ([2]; HCV replicon cell assay, numeric values, unit inferred, read-out: HCV Pro Replicon (EC50)) |
| --- | --- | --- | --- | --- | --- |
| C=C[C@@H]1C[C@]1(NC(=O)[C@@H]1C[C@@H](Oc2ncc(OC)c3ccc(Cl)cc23)CN1C(=O)C(CC)Nc1nsnc1OC)C(=O)CS(=O)(=O)C1CC1 (stereo partly drawn) [Compound 241] | < 6.70 | < 6.00 | – | – | – |
| C=C[C@@H]1C[C@]1(NC(=O)[C@@H]1C[C@@H](Oc2ncc(OC)c3ccc(Cl)cc23)CN1C(=O)C(Nc1nsnc1OC)C(C)C)C(=O)NS(=O)(=O)C1CC1 (stereo partly drawn) [Compound 242] | 7.70 to 9.22 | 7.00 to 8.52 | – | – | – |
| C=C[C@@H]1C[C@]1(NC(=O)[C@@H]1C[C@@H](Oc2ncc(OC)c3ccc(Cl)cc23)CN1C(=O)C(Nc1nsnc1OCC)C(C)(C)C)C(=O)NS(=O)(=O)C1CC1 (stereo partly drawn) [Compound 243] | 7.70 to 9.22 | 7.00 to 8.52 | – | – | – |
| C=CCCCCCC(Nc1ccc(OC)nc1)C(=O)N1C[C@H](Oc2ncc(OC)c3ccc(Cl)cc23)C[C@H]1C(=O)N[C@]1(C(=O)NS(=O)(=O)C2CC2)C[C@H]1C=C (stereo partly drawn) [Compound 410] | < 6.70 | – | 7.00 to 8.52 | – | – |
| C=CCCCCCC(Nc1ccc(OC)nc1)C(=O)N1C[C@H](Oc2ncc(OC)c3ccc(Cl)cc23)C[C@H]1C(=O)N[C@]1(C(=O)NS(=O)(=O)C2CC2)C[C@H]1C=C (stereo partly drawn) [Compound 411] | < 6.70 | – | 6.00 to 7.00 | – | – |
| (4R)-4-((7-chloro-4-methoxy-1-isoquinolinyl)oxy)-N-((1R,2S)-1-((cyclopropylsulfonyl)carbamoyl)-2-vinylcyclopropyl)-1-((2R)-2-((4-ethoxy-1,2,5-thiadiazol-3-yl)amino)butanoyl)-L-prolinamide [Compound 233B] | – | – | – | 5.89 | 5.58 |
